Experimental data: ChEMBL document CHEMBL5291721, “A preclinical secondary pharmacology resource illuminates target-adverse drug reaction associations of marketed drugs” (Nat Commun, 2023)

Tests used:
Histamine H3 receptor = Histamine H3 receptor (Homo sapiens, UniProt Q9Y5N1)
Cannabinoid receptor 1 = Cannabinoid receptor 1 (Homo sapiens, UniProt P21554); format: functional, cell-based
Adenosine receptor A2a = Adenosine receptor A2a (Homo sapiens, UniProt P29274)
[1] = target: Voltage-dependent L-type calcium channel subunit alpha-1C (Rattus norvegicus, UniProt P22002); format: functional
[2] = target: Growth hormone secretagogue receptor type 1 (Homo sapiens, UniProt Q92847)
[3] = target: T1, 5-hydroxytryptamine receptor 2B (Homo sapiens, UniProt P41595); format: functional, cell-based
[4] = target: T2, Muscarinic acetylcholine receptor M2 (Homo sapiens, UniProt P08172); format: functional, cell-based
T2 sequence (P08172 whole entry): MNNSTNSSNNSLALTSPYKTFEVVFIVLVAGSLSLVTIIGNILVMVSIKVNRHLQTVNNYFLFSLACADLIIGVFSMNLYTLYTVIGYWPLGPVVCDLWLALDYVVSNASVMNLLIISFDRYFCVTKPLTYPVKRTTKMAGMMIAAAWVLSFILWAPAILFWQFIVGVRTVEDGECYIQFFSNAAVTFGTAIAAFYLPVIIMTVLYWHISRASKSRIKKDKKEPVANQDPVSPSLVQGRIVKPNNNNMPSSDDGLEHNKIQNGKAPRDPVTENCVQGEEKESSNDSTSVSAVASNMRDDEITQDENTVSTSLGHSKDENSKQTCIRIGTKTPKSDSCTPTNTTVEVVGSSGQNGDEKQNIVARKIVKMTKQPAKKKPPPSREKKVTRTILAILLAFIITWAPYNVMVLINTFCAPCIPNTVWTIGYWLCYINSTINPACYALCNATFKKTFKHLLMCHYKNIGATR

Motilin receptor = Motilin receptor (Homo sapiens, UniProt O43193)
[5] = target: Sodium-dependent noradrenaline transporter (Homo sapiens, UniProt P23975)
Endothelin-1 receptor = target: T3, Endothelin-1 receptor (Homo sapiens, UniProt P25101)
T3 sequence (P25101 whole entry): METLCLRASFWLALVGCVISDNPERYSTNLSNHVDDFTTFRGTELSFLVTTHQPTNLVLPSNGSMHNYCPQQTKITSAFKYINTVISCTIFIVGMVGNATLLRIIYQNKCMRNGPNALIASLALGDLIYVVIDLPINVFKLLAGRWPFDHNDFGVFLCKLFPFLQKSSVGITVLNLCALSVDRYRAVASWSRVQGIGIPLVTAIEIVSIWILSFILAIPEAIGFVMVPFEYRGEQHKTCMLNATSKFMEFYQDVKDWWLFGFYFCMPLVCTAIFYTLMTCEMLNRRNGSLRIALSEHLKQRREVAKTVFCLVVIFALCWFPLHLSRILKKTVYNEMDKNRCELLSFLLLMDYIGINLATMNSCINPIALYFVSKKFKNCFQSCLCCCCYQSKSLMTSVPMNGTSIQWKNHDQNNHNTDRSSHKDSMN

Progesterone receptor = target: T4, Progesterone receptor (Homo sapiens, UniProt P06401); format: functional
T4 sequence (P06401 whole entry): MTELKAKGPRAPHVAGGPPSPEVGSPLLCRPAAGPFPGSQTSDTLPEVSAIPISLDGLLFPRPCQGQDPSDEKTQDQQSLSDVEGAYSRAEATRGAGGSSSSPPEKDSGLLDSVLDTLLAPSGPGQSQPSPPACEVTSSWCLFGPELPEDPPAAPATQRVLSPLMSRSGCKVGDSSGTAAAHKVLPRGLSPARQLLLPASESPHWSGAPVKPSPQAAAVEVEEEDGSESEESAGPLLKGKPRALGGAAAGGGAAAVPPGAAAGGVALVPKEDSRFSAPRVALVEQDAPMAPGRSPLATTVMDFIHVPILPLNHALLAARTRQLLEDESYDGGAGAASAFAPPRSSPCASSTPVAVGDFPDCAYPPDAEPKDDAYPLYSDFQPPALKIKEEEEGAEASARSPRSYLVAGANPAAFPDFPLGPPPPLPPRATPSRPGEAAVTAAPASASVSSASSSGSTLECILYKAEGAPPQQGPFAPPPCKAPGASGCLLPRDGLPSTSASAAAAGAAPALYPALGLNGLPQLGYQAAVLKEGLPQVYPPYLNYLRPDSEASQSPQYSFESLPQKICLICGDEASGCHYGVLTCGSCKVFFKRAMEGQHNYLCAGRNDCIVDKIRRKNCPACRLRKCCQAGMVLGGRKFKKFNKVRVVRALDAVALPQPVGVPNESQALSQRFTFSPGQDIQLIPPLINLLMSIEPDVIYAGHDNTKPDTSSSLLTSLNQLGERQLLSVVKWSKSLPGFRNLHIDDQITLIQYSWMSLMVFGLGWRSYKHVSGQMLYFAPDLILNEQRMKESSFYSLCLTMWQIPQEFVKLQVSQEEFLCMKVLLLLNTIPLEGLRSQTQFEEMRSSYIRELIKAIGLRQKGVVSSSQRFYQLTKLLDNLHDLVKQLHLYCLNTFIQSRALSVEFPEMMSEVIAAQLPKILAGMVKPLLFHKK

[6] = target: T5, Alpha-2C adrenergic receptor (Homo sapiens, UniProt P18825); format: functional
T5 sequence (P18825 whole entry): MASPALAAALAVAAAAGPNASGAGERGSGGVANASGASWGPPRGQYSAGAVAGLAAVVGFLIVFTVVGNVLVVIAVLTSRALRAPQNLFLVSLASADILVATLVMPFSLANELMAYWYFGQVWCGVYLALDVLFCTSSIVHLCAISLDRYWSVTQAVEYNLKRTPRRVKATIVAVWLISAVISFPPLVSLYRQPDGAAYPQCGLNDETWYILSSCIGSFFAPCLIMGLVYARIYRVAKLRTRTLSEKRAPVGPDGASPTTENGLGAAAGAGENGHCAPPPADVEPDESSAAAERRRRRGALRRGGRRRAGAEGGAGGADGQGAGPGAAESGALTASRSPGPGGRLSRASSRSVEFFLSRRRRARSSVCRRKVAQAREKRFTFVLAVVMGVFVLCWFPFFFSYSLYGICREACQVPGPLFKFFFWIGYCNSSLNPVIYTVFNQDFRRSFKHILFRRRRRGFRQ

[7] = target: Kappa-type opioid receptor (Homo sapiens, UniProt P41145)
[8] = target: T1, 5-hydroxytryptamine receptor 2B; format: functional, cell-based; remark: listed apart in the source
Further: assay procedure not described here.

T1 sequence (P41595 whole entry): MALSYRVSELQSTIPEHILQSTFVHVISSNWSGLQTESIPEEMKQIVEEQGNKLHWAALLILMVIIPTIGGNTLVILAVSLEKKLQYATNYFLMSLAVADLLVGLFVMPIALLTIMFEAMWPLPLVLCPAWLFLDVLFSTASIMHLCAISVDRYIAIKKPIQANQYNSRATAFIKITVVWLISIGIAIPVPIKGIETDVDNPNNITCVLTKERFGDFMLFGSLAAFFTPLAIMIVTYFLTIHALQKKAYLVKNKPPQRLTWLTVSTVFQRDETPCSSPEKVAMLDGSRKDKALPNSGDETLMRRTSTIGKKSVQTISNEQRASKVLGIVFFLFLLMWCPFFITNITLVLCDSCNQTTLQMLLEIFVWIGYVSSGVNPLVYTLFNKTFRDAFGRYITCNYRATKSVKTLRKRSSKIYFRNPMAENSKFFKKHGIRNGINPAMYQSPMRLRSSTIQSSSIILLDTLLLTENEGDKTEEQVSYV
Sequence of Growth hormone secretagogue receptor type 1 (Q92847 whole entry): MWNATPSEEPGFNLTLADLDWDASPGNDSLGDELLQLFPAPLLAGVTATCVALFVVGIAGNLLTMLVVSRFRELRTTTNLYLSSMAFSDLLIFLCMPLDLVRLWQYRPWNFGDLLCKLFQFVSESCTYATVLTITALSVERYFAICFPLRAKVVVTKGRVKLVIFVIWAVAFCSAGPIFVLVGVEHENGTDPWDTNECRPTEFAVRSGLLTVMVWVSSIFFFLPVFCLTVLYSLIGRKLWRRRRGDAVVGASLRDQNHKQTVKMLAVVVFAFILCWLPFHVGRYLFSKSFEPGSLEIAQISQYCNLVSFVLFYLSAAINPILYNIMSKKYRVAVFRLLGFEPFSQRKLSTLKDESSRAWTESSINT
Sequence of Motilin receptor (O43193 whole entry): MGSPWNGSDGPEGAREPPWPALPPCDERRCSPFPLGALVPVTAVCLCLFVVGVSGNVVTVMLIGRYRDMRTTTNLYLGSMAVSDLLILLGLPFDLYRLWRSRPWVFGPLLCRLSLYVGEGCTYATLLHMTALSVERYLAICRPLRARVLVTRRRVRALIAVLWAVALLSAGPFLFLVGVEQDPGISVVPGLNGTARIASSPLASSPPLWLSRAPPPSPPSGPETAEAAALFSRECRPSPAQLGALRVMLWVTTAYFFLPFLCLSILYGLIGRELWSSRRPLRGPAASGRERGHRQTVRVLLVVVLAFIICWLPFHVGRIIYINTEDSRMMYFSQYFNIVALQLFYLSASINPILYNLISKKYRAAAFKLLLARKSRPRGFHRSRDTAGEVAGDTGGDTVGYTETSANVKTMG
Sequence of Kappa-type opioid receptor (P41145 whole entry): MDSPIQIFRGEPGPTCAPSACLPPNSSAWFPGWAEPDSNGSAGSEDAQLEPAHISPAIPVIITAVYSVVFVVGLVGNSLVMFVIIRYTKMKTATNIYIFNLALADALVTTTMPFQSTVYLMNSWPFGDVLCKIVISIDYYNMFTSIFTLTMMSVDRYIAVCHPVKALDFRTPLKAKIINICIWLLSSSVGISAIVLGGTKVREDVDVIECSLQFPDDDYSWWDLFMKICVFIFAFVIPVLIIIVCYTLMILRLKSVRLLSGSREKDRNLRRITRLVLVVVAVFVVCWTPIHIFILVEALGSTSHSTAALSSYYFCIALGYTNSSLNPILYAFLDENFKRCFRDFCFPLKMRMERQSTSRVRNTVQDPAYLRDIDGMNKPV
Sequence of Sodium-dependent noradrenaline transporter (P23975 whole entry): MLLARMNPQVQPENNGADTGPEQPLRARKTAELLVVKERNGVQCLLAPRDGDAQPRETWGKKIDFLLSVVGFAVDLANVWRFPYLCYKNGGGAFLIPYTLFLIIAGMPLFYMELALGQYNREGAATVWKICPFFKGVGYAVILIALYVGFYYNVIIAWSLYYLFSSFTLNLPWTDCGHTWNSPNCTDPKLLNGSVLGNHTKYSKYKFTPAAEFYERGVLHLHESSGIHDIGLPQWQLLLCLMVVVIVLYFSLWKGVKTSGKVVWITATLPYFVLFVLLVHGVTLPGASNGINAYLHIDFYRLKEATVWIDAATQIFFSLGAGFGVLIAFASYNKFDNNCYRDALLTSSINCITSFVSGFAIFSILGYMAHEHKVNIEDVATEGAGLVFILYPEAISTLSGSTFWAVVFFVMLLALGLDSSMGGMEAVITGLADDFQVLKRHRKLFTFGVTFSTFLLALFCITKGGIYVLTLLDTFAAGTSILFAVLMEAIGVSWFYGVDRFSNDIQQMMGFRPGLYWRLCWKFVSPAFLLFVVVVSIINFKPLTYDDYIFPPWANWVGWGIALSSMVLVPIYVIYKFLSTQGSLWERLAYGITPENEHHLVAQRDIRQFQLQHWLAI
Sequence of Cannabinoid receptor 1 (P21554 whole entry): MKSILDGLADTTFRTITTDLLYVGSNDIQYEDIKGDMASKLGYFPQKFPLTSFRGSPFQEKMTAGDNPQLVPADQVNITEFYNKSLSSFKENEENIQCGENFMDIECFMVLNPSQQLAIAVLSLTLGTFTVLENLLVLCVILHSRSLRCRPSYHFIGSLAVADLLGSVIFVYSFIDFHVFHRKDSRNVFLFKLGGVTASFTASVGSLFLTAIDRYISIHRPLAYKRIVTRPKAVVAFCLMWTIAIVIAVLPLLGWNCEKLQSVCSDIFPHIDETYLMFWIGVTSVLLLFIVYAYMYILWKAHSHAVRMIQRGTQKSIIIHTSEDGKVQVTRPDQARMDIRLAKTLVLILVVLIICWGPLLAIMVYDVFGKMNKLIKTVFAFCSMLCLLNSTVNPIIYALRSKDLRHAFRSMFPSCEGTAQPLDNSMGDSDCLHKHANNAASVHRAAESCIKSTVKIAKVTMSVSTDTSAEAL
Sequence of Adenosine receptor A2a (P29274 whole entry): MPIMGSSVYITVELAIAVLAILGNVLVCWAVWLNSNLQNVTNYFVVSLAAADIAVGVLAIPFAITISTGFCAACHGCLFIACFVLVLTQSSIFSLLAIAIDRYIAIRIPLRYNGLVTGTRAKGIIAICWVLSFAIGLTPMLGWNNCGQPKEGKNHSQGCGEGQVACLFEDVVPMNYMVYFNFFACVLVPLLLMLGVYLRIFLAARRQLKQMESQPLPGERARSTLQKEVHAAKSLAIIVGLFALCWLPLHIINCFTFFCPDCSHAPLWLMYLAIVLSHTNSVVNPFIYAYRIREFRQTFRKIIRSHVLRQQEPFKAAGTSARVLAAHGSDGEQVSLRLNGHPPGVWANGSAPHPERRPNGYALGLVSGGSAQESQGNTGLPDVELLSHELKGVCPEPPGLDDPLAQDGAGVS
Sequence of Histamine H3 receptor (Q9Y5N1 whole entry): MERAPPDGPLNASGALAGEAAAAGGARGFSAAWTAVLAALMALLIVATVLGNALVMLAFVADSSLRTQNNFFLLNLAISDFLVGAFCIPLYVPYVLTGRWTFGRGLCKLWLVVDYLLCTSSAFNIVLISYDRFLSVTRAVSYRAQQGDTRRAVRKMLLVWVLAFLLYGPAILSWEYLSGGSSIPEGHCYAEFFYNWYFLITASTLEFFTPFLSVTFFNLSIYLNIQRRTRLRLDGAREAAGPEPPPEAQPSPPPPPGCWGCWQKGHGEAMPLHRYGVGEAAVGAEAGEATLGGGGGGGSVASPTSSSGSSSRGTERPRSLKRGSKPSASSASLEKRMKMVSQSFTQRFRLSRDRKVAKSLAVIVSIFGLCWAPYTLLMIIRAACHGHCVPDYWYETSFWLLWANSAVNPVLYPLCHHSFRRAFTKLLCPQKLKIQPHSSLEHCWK

Row | AC50 (Histamine H3 receptor) [µM] | AC50 (Cannabinoid receptor 1) [µM] | AC50 (Adenosine receptor A2a) [µM] | AC50 [1] [µM] | AC50 [2] [µM] | AC50 [3] [µM] | AC50 [4] [µM] | AC50 (Motilin receptor) [µM] | AC50 [5] [µM] | AC50 (Endothelin-1 receptor) [µM] | AC50 (Progesterone receptor) [µM] | AC50 [6] [µM] | AC50 [7] [µM] | AC50 [8] [µM] | Compound
1 | > 30 | > 30 | > 30 | > 30 | > 30 | > 30 | > 30 | > 30 | > 30 | > 30 | 19 | > 30 | > 30 | > 30 | CC1=C(/C=C/C(C)=C/C=C/C(C)=C/C(=O)Oc2c(C)c(C)c3c(c2C)CCC(C)(CCCC(C)CCCC(C)CCCC(C)C)O3)C(C)(C)CCC1 (configuration not stated) [TRETINOIN TOCOFERIL]
2 | > 30 | > 30 | > 30 | > 30 | > 30 | > 30 | > 30 | > 30 | > 30 | > 30 | > 30 | > 30 | > 30 | > 30 | CCCCOC(=O)C(=O)Nc1cccc(-c2nnn[nH]2)c1 [TAZANOLAST]

Row | Compound | AC50 (Histamine H3 receptor) [µM] | AC50 (Cannabinoid receptor 1) [µM] | AC50 (Adenosine receptor A2a) [µM] | AC50 [1] [µM] | AC50 [2] [µM] | AC50 [3] [µM] | AC50 [4] [µM] | AC50 (Motilin receptor) [µM] | AC50 [5] [µM] | AC50 (Endothelin-1 receptor) [µM] | AC50 (Progesterone receptor) [µM] | AC50 [6] [µM] | AC50 [7] [µM] | AC50 [8] [µM]
3 | CCN(CC)Cc1nccn1-c1ccc([N+](=O)[O-])cc1C(=O)c1ccccc1Cl [NIZOFENONE] | > 30 | > 30 | > 30 | > 30 | > 30 | > 30 | > 30 | > 30 | > 30 | > 30 | > 30 | > 30 | 6.3 | > 30
